Laboratory results reported in article PMC8143347, “Metabolism and Interspecies Variation of IMMH-010, a Programmed Cell Death Ligand 1 Inhibitor Prodrug” (Pharmaceutics, 2021).

Tests used:
[1] = Metabolism in human liver S9 fractions; type: in vitro ADME
Experimental: (§1) IMMH-010 metabolism was compared in human, monkey, dog, and rat liver S9 homogenates. IMMH-010 (10 μM) was incubated with liver S9 homogenate protein (0.5 mg protein/mL) and a reduced nicotinamide adenine dinucleotide phosphate (NADPH) regenerating system in a final volume of 0.2 mL Tris-HCl buffer (50 mM, pH 7.4) containing 5 mM MgCl2. The reactions were performed in triplicate. After 2 min of preincubation at 37 °C, reactions were initiated by the addition of IMMH-010 (10 μM). The samples were collected 0, 5, 10, and 20 min after incubation, 2 volumes of acetonitrile were added to terminate the reaction. After vortexing and centrifugation, IMMH-010, YPD-29B, M3, and M4 in the supernatant were analyzed by LC-MS/MS.
(§2) All statistics were calculated using GraphPad Prism 8.0 software (San Diego, CA, USA) designed for one-way ANOVA. Pharmacokinetic parameters were calculated with a non-compartmental analysis using WinNonlin Version 6.3 (Pharsight, Mountain View, CA, USA). ADMET predictor V10.0 (Simulations Plus, Inc., Lancaster, CA, USA) and Microsoft Excel (Microsoft, Redmond, WA, USA) were used to process the data (i.e., half-life (t1/2) and hepatic clearance (CLhep) determination). Data were expressed as means ± standard deviations (SD). Results were considered statistically significant if the p-value <0.05, <0.01 and <0.001.

[2] = Metabolism in monkey liver S9 fractions; type: in vitro ADME
Experimental: as §1, §2

[3] = Metabolism in dog liver S9 fractions; type: in vitro ADME
Experimental: as §1, §2

[4] = Metabolism in rat liver S9 fractions; type: in vitro ADME
Experimental: as §1, §2

[5] = test system: B16F10 melanoma; experiment: Antitumor activity in B16F10 melanoma xenograft model; type: in vivo, mouse
Experimental: (§3) The antitumor activity of IMMH-010 was evaluated by B16F10 melanoma and MC38 colon carcinoma xenograft models. The B16F10 and MC38 cells were resuspended in saline (1.5 × 10^6 cells/0.2 mL saline) and injected subcutaneously into the right flanks of each mouse on day 0. The treated mice received once-daily oral administration of IMMH-010 maleate (1.25, 2.5, 5, and 10 mg/kg, n = 10) by oral gavage (PO) for 19 consecutive days, whereas the control mice received vehicle (0.5% carboxymethyl cellulose, n = 10). The mice in the positive control group received the anti-mouse PD-L1 antibody (696618M2, Bio X Cell, West Lebanon, NH, USA) at 10 mg/kg intraperitoneally every 3 days (n = 10). The first-line antineoplastic drug cyclophosphamide (CTX) was administered at doses of 80 and 40 mg/kg weekly in the B16F10 and MC38 models (n = 10), respectively. After the last treatment, on day 19, the mice were sacrificed, and the tumor and spleen were stripped and weighed. The tumor growth inhibition (TGI) was calculated as TGI = (1 − treatment group tumor weight/vehicle group tumor weight) × 100.

[6] = test system: MC38 colon carcinoma; experiment: Antitumor activity in MC38 colon carcinoma xenograft model; type: in vivo, mouse
Experimental: as §3

[7] = Body weight in B16F10 model
Experimental: as §3

[8] = Body weight in MC38 model
Experimental: as §3

[9] = Plasma and tumor PK in B16F10 melanoma xenograft mice; type: in vivo, mouse; conditions: B16F10 mice, after last oral dose of IMMH-010 maleate 5 mg/kg
Experimental: After the final dose, tumor and blood samples treated with IMMH-010 maleate (5 mg/kg) were collected over 72 h. Blood was exposed in an EP tube containing 500 mM NaF and 0.5% heparin sodium. Plasma samples were obtained by centrifugation, and tumor tissues were homogenized with 3 volumes (w/v) of saline on ice. The concentration of IMMH-010 and YPD-29B in plasma and tumor samples was quantitated by an LC-MS/MS method.
LC-MS/MS was performed using a triple quadrupole mass spectrometer (API 4000, AB Sciex, Framingham, MA, USA) with an ultra-performance liquid chromatography system (LC-30A, Shimadzu, Kyoto, Japan). Analyst 1.6.2 software (AB Sciex) was used for data acquisition and analysis. Mobile phase A was 1 mM ammonium acetate and mobile phase B was methanol. The mobile phase was delivered with the following gradient elution profile: 0–2.8 min, 70% B; 2.9 min, 85% B; 3 min, 90% B; 3.1–6.8 min, 100% B; 6.9–12 min, 70% B. The flow rate was 0.3 mL/min, and the column oven was maintained at 35 °C. The specific transitions monitored were 641.3 → 494.2 for IMMH-010, 597 → 155 for YPD-29B, 512 → 247 for M3, and 524 → 246 for M4.
as §2

[10] = B16F10, IMMH-010 maleate 1.25 mg/kg PO once daily 19 days
[11] = B16F10, IMMH-010 maleate 2.5 mg/kg PO once daily 19 days
[12] = B16F10, IMMH-010 maleate 5 mg/kg PO once daily 19 days
[13] = B16F10, IMMH-010 maleate 10 mg/kg PO once daily 19 days
[14] = MC38, IMMH-010 maleate 1.25 mg/kg PO once daily 19 days
[15] = MC38, IMMH-010 maleate 2.5 mg/kg PO once daily 19 days
[16] = MC38, IMMH-010 maleate 5 mg/kg PO once daily 19 days
[17] = MC38, IMMH-010 maleate 10 mg/kg PO once daily 19 days

estimated CLhep ([1]; from human liver S9): 18.2 mL/min/kg
half-life at 10 μM ([1]; pH 7.4, human liver S9 0.5 mg protein/mL, 10 μM, NADPH): 6.66 min
CLhep as share of hepatic blood flow ([1]; range over human, monkey, dog and rat liver S9): 83.4–91.0%
estimated CLhep ([2]; from monkey liver S9): 37.2 mL/min/kg
half-life at 10 μM ([2]; pH 7.4, monkey liver S9 0.5 mg protein/mL, 10 μM, NADPH): 8.28 min
estimated CLhep ([3]; from dog liver S9): 36.4 mL/min/kg
half-life at 10 μM ([3]; pH 7.4, dog liver S9 0.5 mg protein/mL, 10 μM, NADPH): 4.9 min
estimated CLhep ([4]; from rat liver S9): 58.4 mL/min/kg
half-life at 10 μM ([4]; pH 7.4, rat liver S9 0.5 mg protein/mL, 10 μM, NADPH): 7.1 min
concentration of IMMH-010 in plasma and tumor tissues [9]: < 1 ng/mL
SMILES: CC(C)OC(=O)[C@H](CO)NCc1cc(Cl)c(OCc2cccc(-c3ccccc3)c2Br)cc1OCc1cccnc1 [IMMH-010]
Tumor Weight (g) X ± SD [5, 10]: 1.78 ± 1.13 g
Tumor Weight TGI (%) [5, 10]: 23%
Tumor Weight (g) X ± SD [5, 11]: 1.26 ± 0.85 g
Tumor Weight TGI (%) [5, 11]: 45%
Tumor Weight (g) X ± SD [5, 12]: 1.39 ± 0.84 g
Tumor Weight TGI (%) [5, 12]: 40%
Tumor Weight (g) X ± SD [5, 13]: 1.04 ± 0.66 g
Tumor Weight TGI (%) [5, 13]: 55%
Tumor Weight (g) X ± SD [6, 14]: 1.03 ± 0.65 g
Tumor Weight TGI (%) [6, 14]: 40%
Tumor Weight (g) X ± SD [6, 15]: 1.13 ± 0.78 g
Tumor Weight TGI (%) [6, 15]: 34%
Tumor Weight (g) X ± SD [6, 16]: 0.42 ± 0.39 g
Tumor Weight TGI (%) [6, 16]: 75%
Tumor Weight (g) X ± SD [6, 17]: 0.73 ± 0.54 g
Tumor Weight TGI (%) [6, 17]: 57%
Body Weight (g) X ± SD Finish [7, 10]: 20.2 ± 1.4 g
Body Weight (g) X ± SD Start ([7]; B16F10, IMMH-010 maleate 1.25 mg/kg PO once daily): 17.09 ± 0.63 g
Body Weight (g) X ± SD Finish [7, 11]: 20.3 ± 1.2 g
Body Weight (g) X ± SD Start ([7]; B16F10, IMMH-010 maleate 2.5 mg/kg PO once daily): 16.86 ± 0.57 g
Body Weight (g) X ± SD Finish [7, 12]: 20.0 ± 1.2 g
Body Weight (g) X ± SD Start ([7]; B16F10, IMMH-010 maleate 5 mg/kg PO once daily): 17.09 ± 0.81 g
Body Weight (g) X ± SD Finish [7, 13]: 20.1 ± 1.0 g
Body Weight (g) X ± SD Start ([7]; B16F10, IMMH-010 maleate 10 mg/kg PO once daily): 17.15 ± 0.50 g
effect on body weight ([7]; B16F10 model, IMMH-010 maleate PO once a day for 19 days): without weight loss
Body Weight (g) X ± SD Finish [8, 14]: 24.3 ± 2.1 g
Body Weight (g) X ± SD Start ([8]; MC38, IMMH-010 maleate 1.25 mg/kg PO once daily): 22.2 ± 0.4 g
Body Weight (g) X ± SD Finish [8, 15]: 25.3 ± 2.3 g
Body Weight (g) X ± SD Start ([8]; MC38, IMMH-010 maleate 2.5 mg/kg PO once daily): 22.0 ± 0.6 g
Body Weight (g) X ± SD Finish [8, 16]: 23.7 ± 1.8 g
Body Weight (g) X ± SD Start ([8]; MC38, IMMH-010 maleate 5 mg/kg PO once daily): 21.9 ± 0.8 g
Body Weight (g) X ± SD Finish [8, 17]: 25.0 ± 1.7 g
Body Weight (g) X ± SD Start ([8]; MC38, IMMH-010 maleate 10 mg/kg PO once daily): 21.9 ± 0.7 g
effect on body weight ([8]; MC38 model, IMMH-010 maleate PO once a day for 19 days): without weight loss
